Assays:
[1] = tested on: PANMI (wild proso millet); assay: Pre-plant incorporated (PPI) herbicidal activity, warm season; type: in vivo, Panicum miliaceum; conditions: for Percent inhibition PANMI: PPI application
Summary of the method: (§1)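 Incorporation into cover soil: a known compound amount, dissolved or suspended in organic solvent, was sprayed onto it and mixed before layering over sown seeds. Plants grew under greenhouse conditions (30/21° C warm season; 18/13° C cool season, greenhouse or growth chamber). Rated ~14 days later as % inhibition.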

PANDI (fall panicum) = assay: Pre-emergence herbicidal activity, warm season; type: in vivo, Panicum dichotomiflorum; conditions: GR80 = lowest tested rate (300, 100, 30, 10 g/ha) with 80% or greater inhibition; approx. 14 days after treating; 30/21° C.
Summary of the method: (§2)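 Seeds sown in sterilised fertilised topsoil received surface-applied compound in 50:50 acetone/water, typically at 300, 100, 30 and 10 g/ha, then greenhouse-grown at 30/21° C (warm-season species) or 18/13° C (cool-season species). Percent inhibition versus untreated plants was scored at about 14 days, giving GR80; an asterisk marks activity short of 80% at the top rate.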

STEME (common chickweed) [2] = assay: Pre-emergence herbicidal activity, cool season; type: in vivo, Stellaria media; conditions: lowest tested rate with 80% or greater inhibition; rates 300, 100, 30, 10 g/ha; about 14 days
Summary of the method: (§3)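 GR80 values derive from percent inhibition relative to untreated plants, read roughly 14 days after sowing and pre-emergence soil-surface treatment (compound in 50:50 acetone/water; rates typically 10, 30, 100, 300 g/ha). Warm-season weeds grew at 30/21° C day/night, cool-season ones at 18/13° C; an asterisk marks activity without reaching 80% at the highest rate.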

SASKR (russian thistle) = assay: Pre-emergence herbicidal activity, cool season; type: in vivo, Salsola kali; conditions: lowest tested rate with 80% or greater inhibition; rates 300, 100, 30, 10 g/ha; about 14 days
Summary of the method: as §3

STEME (common chickweed) [3] = assay: Pre-plant incorporated (PPI) herbicidal activity, cool season; type: in vivo, Stellaria media; conditions: for Percent inhibition STEME: weed, PPI application
Summary of the method: as §1

corn (ZEAMX) = assay: Selectivity test, PPI, warm season crop; type: in vivo, Zea mays; conditions: PPI application
Summary of the method: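 Percent inhibition relative to untreated controls, assessed roughly 14 days post-planting. Seeds were covered with a soil layer into which solvent-borne compound had been sprayed and mixed. Plants were then grown at 30/21° C. (warm season) or 18/13° C. (cool season) day/night regimes.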

ALOMY (blackgrass) = assay: Pre-plant incorporated (PPI) herbicidal activity, cool season; type: in vivo, Alopecurus myosuroides; conditions: for Percent inhibition ALOMY: weed, PPI application
Summary of the method: as §1

[4] = tested on: SORHA (johnsongrass (seedling)); assay: Pre-plant incorporated (PPI) herbicidal activity, warm season; type: in vivo, Sorghum halepense; conditions: for Percent inhibition SORHA: PPI application
Summary of the method: as §1

[5] = tested on: LAMPU (purple deadnettle); assay: Pre-emergence herbicidal activity, cool season; type: in vivo, Lamium purpureum; conditions: lowest tested rate with 80% or greater inhibition; rates 300, 100, 30, 10 g/ha; about 14 days
Summary of the method: as §3

[6] = tested on: CHEAL (common lambsquarters); assay: Pre-emergence herbicidal activity, warm season; type: in vivo, Chenopodium album; conditions: GR80 = lowest tested rate (300, 100, 30, 10 g/ha) with 80% or greater inhibition; approx. 14 days after treating; 30/21° C.
Summary of the method: as §3

SORVU (shattercane) = assay: Pre-plant incorporated (PPI) herbicidal activity, warm season; type: in vivo, Sorghum vulgare; conditions: for Percent inhibition SORVU: PPI application
Summary of the method: as §1

ECHCG (barnyardgrass) = assay: Pre-emergence herbicidal activity, warm season; type: in vivo, Echinochloa crus-galli; conditions: GR80 = lowest tested rate (300, 100, 30, 10 g/ha) with 80% or greater inhibition; approx. 14 days after treating; 30/21° C.
Summary of the method: as §2

[7] = pre-plant incorporated, lowest tested rate with 80% or greater inhibition, about 14 days

Compound | Percent inhibition PANMI ([1]; 30 g/ha) | Percent inhibition PANMI ([1]; 100 g/ha) | Percent inhibition PANMI ([1]; 300 g/ha) | Percent inhibition PANMI ([1]; 900 g/ha) | Pre-emergence activity (GR80) PANDI (PANDI (fall panicum)) | Pre-emergence activity GR80, STEME (STEME (common chickweed) [2]) | Pre-emergence activity GR80, SASKR (SASKR (russian thistle)) | Percent inhibition STEME (STEME (common chickweed) [3]; 30 g/ha) | Percent inhibition STEME (STEME (common chickweed) [3]; 100 g/ha) | Percent inhibition STEME (STEME (common chickweed) [3]; 300 g/ha) | Percent inhibition STEME (STEME (common chickweed) [3]; 900 g/ha) | Percent inhibition ZEAMX (corn (ZEAMX); 30 g/ha) | Percent inhibition ZEAMX (corn (ZEAMX); 100 g/ha) | Percent inhibition ZEAMX (corn (ZEAMX); 300 g/ha) | Percent inhibition ZEAMX (corn (ZEAMX); 900 g/ha) | Percent inhibition ALOMY (ALOMY (blackgrass); 30 g/ha) | Percent inhibition ALOMY (ALOMY (blackgrass); 100 g/ha) | Percent inhibition ALOMY (ALOMY (blackgrass); 300 g/ha) | Percent inhibition ALOMY (ALOMY (blackgrass); 900 g/ha) | Percent inhibition SORHA ([4]; 30 g/ha) | further results
CCN(CC)C(=O)n1cnc(S(=O)(=O)C(F)(F)Cl)n1 [Example 3] | 100% | 100% | 100% | 100% | 100 g/ha | 30 g/ha | [empty] | 60% | 80% | 100% | 100% | 5% | 10% | 30% | 55% | 60% | 90% | 99% | 100% | 99% | Percent inhibition SORHA ([4]; 100 g/ha): 100%; Percent inhibition SORHA ([4]; 300 g/ha): 100%; Percent inhibition SORHA ([4]; 900 g/ha): 100%; Pre-emergence activity GR80, LAMPU [5]: 100 g/ha; Pre-emergence activity (GR80) CHEAL [6]: 100 g/ha; Percent inhibition SORVU (SORVU (shattercane); 30 g/ha): 70%; Percent inhibition SORVU (SORVU (shattercane); 100 g/ha): 95%; Percent inhibition SORVU (SORVU (shattercane); 300 g/ha): 100%; Percent inhibition SORVU (SORVU (shattercane); 900 g/ha): 100%; Pre-emergence activity (GR80) ECHCG (ECHCG (barnyardgrass)): 30 g/ha
CCN(CC)C(=O)n1cnc(S(=O)(=O)C(F)(F)C(F)(F)Br)n1 [Example 4] | 0% | 100% | 100% | 100% | 30 g/ha | 10 g/ha | 30 g/ha | 10% | 60% | 80% | 95% | 0% | 5% | 40% | 50% | 70% | 95% | 100% | 100% | 60% | Percent inhibition SORHA ([4]; 100 g/ha): 100%; Percent inhibition SORHA ([4]; 300 g/ha): 100%; Percent inhibition SORHA ([4]; 900 g/ha): 100%; Pre-emergence activity GR80, LAMPU [5]: 30 g/ha; Pre-emergence activity (GR80) CHEAL [6]: 30 g/ha; Percent inhibition SORVU (SORVU (shattercane); 30 g/ha): 0%; Percent inhibition SORVU (SORVU (shattercane); 100 g/ha): 45%; Percent inhibition SORVU (SORVU (shattercane); 300 g/ha): 100%; Percent inhibition SORVU (SORVU (shattercane); 900 g/ha): 100%; Pre-emergence activity (GR80) ECHCG (ECHCG (barnyardgrass)): 100 g/ha
CCN(CC)C(=O)n1cnc(S(=O)(=O)C(F)(F)SCc2ccccc2)n1 [Example 10] | 0% | 80% | 99% | 100% | 300 g/ha | 300 g/ha | 100 g/ha | 0% | 0% | 0% | 90% | 0% | 0% | 10% | 40% | 50% | 100% | 95% | 100% | 0% | Percent inhibition PANMI ([1]; 10 g/ha): 0%; Percent inhibition STEME (STEME (common chickweed) [3]; 10 g/ha): 0%; Percent inhibition ZEAMX (corn (ZEAMX); 10 g/ha): 0%; Percent inhibition ALOMY (ALOMY (blackgrass); 10 g/ha): 0%; Percent inhibition SORHA ([4]; 10 g/ha): 0%; Percent inhibition SORHA ([4]; 100 g/ha): 50%; Percent inhibition SORHA ([4]; 300 g/ha): 100%; Percent inhibition SORHA ([4]; 900 g/ha): 100%; Pre-emergence activity GR80, LAMPU [5]: 100 g/ha; Pre-emergence activity (GR80) CHEAL [6]: 300 g/ha; Percent inhibition SORVU (SORVU (shattercane); 10 g/ha): 0%; Percent inhibition SORVU (SORVU (shattercane); 30 g/ha): 0%; Percent inhibition SORVU (SORVU (shattercane); 100 g/ha): 20%; Percent inhibition SORVU (SORVU (shattercane); 300 g/ha): 95%; Percent inhibition SORVU (SORVU (shattercane); 900 g/ha): 100%; Pre-emergence activity (GR80) ECHCG (ECHCG (barnyardgrass)): 300 g/ha
CCN(CC)C(=O)n1cnc(S(=O)(=O)C(F)(F)SCC(=O)OC)n1 [Example 11] | 0% | 20% | 80% | 100% | 300 g/ha | [empty] | 300 g/ha | 0% | 0% | 0% | 30% | 0% | 0% | 0% | 10% | 0% | 20% | 45% | 100% | 0% | PPI activity GR80, PANMI [1, 7]: * (activity observed, at least at highest rate, but <80% inhibition); PPI activity GR80, STEME (STEME (common chickweed) [3]; [7]): 300 g/ha; Percent inhibition STEME (STEME (common chickweed) [3]; 10 g/ha): 0%; Percent inhibition ZEAMX (corn (ZEAMX); 10 g/ha): 0%; PPI activity GR80, ALOMY (ALOMY (blackgrass); [7]): 300 g/ha; Percent inhibition ALOMY (ALOMY (blackgrass); 10 g/ha): 0%; Percent inhibition SORHA ([4]; 10 g/ha): 0%; Percent inhibition SORHA ([4]; 100 g/ha): 30%; Percent inhibition SORHA ([4]; 300 g/ha): 80%; Percent inhibition SORHA ([4]; 900 g/ha): 100%; PPI activity GR80, SORHA [4, 7]: 300 g/ha; Pre-emergence activity GR80, LAMPU [5]: 100 g/ha; Pre-emergence activity (GR80) CHEAL [6]: 300 g/ha; Percent inhibition SORVU (SORVU (shattercane); 10 g/ha): 0%; Percent inhibition SORVU (SORVU (shattercane); 30 g/ha): 0%; Percent inhibition SORVU (SORVU (shattercane); 100 g/ha): 10%; Percent inhibition SORVU (SORVU (shattercane); 300 g/ha): 65%; Percent inhibition SORVU (SORVU (shattercane); 900 g/ha): 100%; PPI activity GR80, SORVU (SORVU (shattercane); [7]): 300 g/ha; Pre-emergence activity (GR80) ECHCG (ECHCG (barnyardgrass)): * (activity observed, at least at highest rate, but <80% inhibition)

Reference: patent US6461997B1, “Triazole sulfones having herbicidal activity” (Monsanto Technology LLC, priority 1999, dated 2002)
